Measured values as given in publication PMC3948622, “Docking, Synthesis and Antiproliferative Activity of N-Acylhydrazone Derivatives Designed as Combretastatin A4 Analogues” (PLoS ONE, 2014).
Converted amounts (≈) assume the structure as drawn.

How the values were obtained:
HL-60 (human leukemia) = test: In vitro antiproliferative MTT assay, HL-60; format: cell-based
MDA-MB435 (melanoma) [1] = test: In vitro antiproliferative MTT assay, MDA-MB435; format: cell-based; settings: Homo sapiens, MDA-MB-435; Table 2; MTT
[2] = system: HCT-116 (colon carcinoma); test: Hollow Fiber Assay (HFA), HCT-116 fibers s.c. in mice; format: in vivo, BALB/c nude mice; settings: 4 days; for Proliferation (OD595 nm) HCT-116: mean ± S.E.M.
Procedure: (§1) Cell culture of SF-295 (glioblastoma) and HCT-116 (colon carcinoma) was performed in RPMI 1640 medium supplemented with 10% fetal bovine serum, 2 mM glutamine, at 37°C with 5% CO2.
(§2) Polyvinylidene fluoride (PVDF) HFs with a 1-mm internal diameter and a molecular weight cutoff point of 500 kDa were used (Spectrum Laboratories, Houston, TX). The fibers were cut into pieces 12–15 cm long, washed 2× with sterile distilled water and kept in sterile conditions.
(§3) Before use, under sterile conditions, the fibers were incubated in complete RPMI with 20% fetal bovine serum (FBS) overnight (packaging time). Cell viability was assessed by trypan blue exclusion assay. Then, a cell suspension of 7.0×10^6 cell/mL at 4°C was injected into the fiber, with the ends thereof immediately heat-sealed. The fibers were cut into 2 cm each, transferred to petri plates and incubated in complete RPMI medium for 24 h prior to implantation in mice. Each cell was injected into one fiber of a different color (HCT-116, yellow fibers; SF-295, blue fibers).
(§4) Each animal received 2 fibers at s.c. site. All incisions were sealed with a surgical stapler.
(§5) Tumor cell proliferation was quantified through the ability of living cells to reduce the yellow dye 3-(4,5-dimethyl-2-thiazolyl)-2,5-diphenyl-2H-tetrazolium bromide (MTT, Sigma Aldrich) to a purple formazan product. For this purpose, the fibers removed from animals were incubated with MTT 1 mg/mL in 6-well plates during 4 h at 37°C, 5% CO2 and 95% humidity. The MTT solution was aspirated; fibers were washed with saline solution containing protamine sulphate 2.5% and incubated in protamine solution overnight at 4°C. Fibers were transferred to 24 well plates, cut into 2 or 3 pieces and put to dry. The formazan was dissolved in […] of DMSO, aliquots (150 uL) were transferred to 96 well plates and absorbance was measured at 595 nm (DTX-880, Beckman Coulter).

[3] = system: OVCAR-8 (ovaries adenocarcinoma); test: In vitro antiproliferative MTT assay, OVCAR-8; format: cell-based
[4] = system: SF-295 (human glioblastoma); test: In vitro antiproliferative MTT assay, SF-295; format: cell-based
[5] = system: HCT-8 (adenocarcinoma ileocecal); test: In vitro antiproliferative MTT assay, HCT-8; format: cell-based
tubulin = test: Tubulin polymerization assay (CEREP); format: biochemical; settings: single concentration C = 30 µM; vinblastine as positive control
Procedure: The tubulin polymerization assay was performed by CEREP® employing a single concentration of 5b (C = 30 µM), using vinblastine as positive control. In this assay, LASSBio-1586 (5b) inhibited 91% of the tubulin polymerization, validating the rational design employed in the molecular design of the derivatives 5a–r (data not shown; available in the supplementary information, Figure S1).
The tubulin polymerization assay was performed by CEREP®, as described by Bonne and co-workers.

[6] = system: NCI-H358M (pulmonary bronchio-alveolar carcinoma); test: In vitro antiproliferative MTT assay, NCI-H358M; format: cell-based
[7] = Aqueous solubility assay by ultraviolet spectroscopy; format: physicochemical; settings: water (saturated aqueous solution), thermodynamic from solid, 2 hours at 37°C, read-out: Aq. Solubility
tumor cell lines = test: In vitro antiproliferative MTT assay, tumor cell lines (summary over the panel); format: cell-based; settings: summary in text over the cell lines of Table 2; read-out: IC50 (antiproliferative potency over the tumor cell lines)
Procedure: The antiproliferative activity of compounds 5a–r was determined based on an MTT assay and using CA-4 as standard against the tumor cell lines: HL-60 (human leukemia), SF-295 (human glioblastoma), MDA-MB435 (melanoma), PC3M (prostate cancer), OVCAR-8 (ovaries adenocarcinoma), NCI-H258M (pulmonary bronchio-alveolar carcinoma) and HCT-8 (adenocarcinoma ileocecal) (Table 2). To determine the selectivity index of compounds 5a–r, their antiproliferative profile was also evaluated toward human lymphocytes (Table 2).
Compounds (0.009–5 µg/mL) were tested for cytotoxic activity against selected cancer cell lines: SF-295 (glioblastoma), HCT-8 (colon), MDAMB-435 (melanoma), HL60 (leukemia), PC3M (prostate cancer), OVCAR-8 (ovaries adenocarcinoma) and NCI-H258M (pulmonary bronchio-alveolar carcinoma). All cell lines were kindly obtained from the National Cancer Institute (Bethesda, MD, USA).Tumor cell proliferation was quantified through the ability of living cells to reduce the yellow dye 3-(4,5-dimethyl-2-thiazolyl)-2,5-diphenyl-2H-tetrazolium bromide (MTT, Sigma Aldrich)) to a purple formazan product and absorbance was measured at 595 nm (DTX-880, Beckman Coulter).

PC3M (prostate cancer) = test: In vitro antiproliferative MTT assay, PC3M; format: cell-based
MDA-MB435 (melanoma) [8] = test: In vitro antiproliferative MTT assay, MDA-MB435; format: cell-based
SF-295 (glioblastoma) = test: Hollow Fiber Assay (HFA), SF-295 fibers s.c. in mice; format: in vivo, BALB/c nude mice; settings: 4 days; for Proliferation (OD595 nm) SF-295: mean ± S.E.M.
Procedure: as §1, §2, §3, §4, §5

[9] = IC50 for human lymphocytes/IC50 for cancer cell line
[10] = SI of 5b relative to SI of CA-4

Structure (SMILES): COc1cc(C(=O)N/N=C/c2ccccc2)cc(OC)c1OC [Compound 5b, (E)-N′benzylidene-3,4,5-trimetoxybenzohydrazide]
- IC50 (HL-60 (human leukemia); Homo sapiens, HL-60, Table 2, MTT): 290 nM
- SI Lymphocyte/ HL-60 (HL-60 (human leukemia); [9]): 4.11±0.39
- IC50 (MDA-MB435 (melanoma) [1]): 64 nM
- Inhibition (%) HCT-116 ([2]; 25 mg/kg/day intraperitoneally): 82.89%
- Proliferation (OD595 nm) HCT-116 ([2]; 25 mg/kg/day intraperitoneally): 0.26±0.04 OD595 nm
- Inhibition (%) HCT-116 ([2]; 50 mg/kg/day intraperitoneally): 80.76%
- Proliferation (OD595 nm) HCT-116 ([2]; 50 mg/kg/day intraperitoneally): 0.29±0.05 OD595 nm
- IC50 ([3]; Homo sapiens, OVCAR-8, Table 2, MTT): 290 nM
- SI Lymphocyte/ OVCAR-8 [3, 9]: 4.39±0.21
- comparative selectivity index (CA-4 vs 5b) OVCAR-8 [3, 10]: 0.5
- IC50 ([4]; Homo sapiens, SF-295, Table 2, MTT, read-out: IC50 SF295): 260 nM
- SI Lymphocyte/ SF-295 [4, 9]: 4.88±0.42
- comparative selectivity index (CA-4 vs 5b) SF-295 [4, 10]: 13
- IC50 ([5]; Homo sapiens, HCT-8, Table 2, MTT): 450 nM
- SI Lymphocyte/ HCT-8 [5, 9]: 2.86±0.13
- inhibition of tubulin polymerization (tubulin): 91%
- SI Lymphocyte/ NCI-H358M [6, 9]: 4.05±0.25
- IC50 ([6]; NCI-H358M, Table 2, MTT): 350 nM
- comparative selectivity index (CA-4 vs 5b) NCI-H258M [6, 10]: 9.5
- solubility at 2 h [7]: 39.5 µg/mL (≈ 126 µM)
- IC50 (tumor cell lines): 64 to 800 nM
- IC50 (PC3M (prostate cancer); Homo sapiens, PC-3M, Table 2, MTT): 800 nM
- SI Lymphocyte/ PC3M (PC3M (prostate cancer); [9]): 1.60±0.10
- SI Lymphocyte/ MDA-MB345 (MDA-MB435 (melanoma) [8]; [9]): 20.07±0.93
- comparative selectivity index (CA-4 vs 5b) MDA-MB435 (MDA-MB435 (melanoma) [8]; [10]): 42
- Inhibition (%) SF-295 (SF-295 (glioblastoma); 25 mg/kg/day intraperitoneally): 61.89%
- Proliferation (OD595 nm) SF-295 (SF-295 (glioblastoma); 25 mg/kg/day intraperitoneally): 0.57±0.05 OD595 nm
- Inhibition (%) SF-295 (SF-295 (glioblastoma); 50 mg/kg/day intraperitoneally): 72.68%
- Proliferation (OD595 nm) SF-295 (SF-295 (glioblastoma); 50 mg/kg/day intraperitoneally): 0.41±0.06 OD595 nm
